One compound from paper PMC11693508, “Pharmacokinetics, bioavailability, and tissue distribution of MRTX1133 in rats using UHPLC-MS/MS” (Frontiers in Pharmacology, 2024) can be followed below.

The data set is described as follows: Tissue distribution in rats after single intravenous administration. It is filed as in vivo, Sprague-Dawley rats. The conditions noted are these: rat, intravenous 5 mg/kg; for concentration at 2 h: after 2 h; for concentration at 6 h: after 6 h. As for the experimental part:
The distribution of MRTX1133 in the tissues was performed using 25 rats with a single intravenous administration of MRTX1133 at 5 mg kg^-1. The blood samples were collected from abdominal aorta at 0.5 h, 1 h, 2 h, 6 h, and 24 h (five rats at each time point), then the organs such as the heart, liver, spleen, lung, kidney, intestine, and pancreas were immediately collected. The organs were washed with cold physiological saline (4°C), they were weighed and homogenized in cold saline solution (1:3, w/v). The homogenized samples were treated according to the method described in the sample preparation section. The excretion of MRTX1133 in the urine was also investigated by placing the rats in metabolic cages after intravenous administration of MRTX1133 at 5 mg kg^-1 (one rat in each cage), the urine and feces were collected at 2 h, 6 h and 24 h after administration (five rats at each time point), and the content of MRTX1133 in urine and feces was detected by the LC-MS method.

Read-outs that look alike come from different tables or passages of the source.

As to `C#Cc1c(F)ccc2cc(O)cc(-c3ncc4c(N5CC6CCC(C5)N6)nc(OC[C@@]56CCCN5C[C@H](F)C6)nc4c3F)c12` [MRTX1133], the detection in testis result is “no MRTX1133”. In addition, where the note is “Sprague-Dawley, heart, n = 5, read-out: highest concentration in heart”, the concentration at 2 h stood at 879 ± 450 ng/g. For the setting “Sprague-Dawley, kidney, n = 5, read-out: highest concentration in kidney”, the concentration at 2 h is 2580 ng/g. Moreover, the concentration at 1 h (Sprague-Dawley, liver, at 1 h, n = 5, read-out: highest concentration in liver) was 5360 ng/g. Besides, the concentration at 2 h (Sprague-Dawley, lung, n = 5, read-out: highest concentration in lung) was 1230 ng/g. Besides, under “Sprague-Dawley, pancreas, n = 5, read-out: highest concentration in pancreas”, the concentration at 6 h came to 156 ± 34.2 ng/g. Under “Sprague-Dawley, spleen, n = 5, read-out: highest concentration in spleen”, the concentration at 6 h stood at 1860 ± 224 ng/g. In addition, the “concentration in liver, spleen, kidney and lung compared with plasma” value (2 h after administration) is given as “higher than the concentration of the drug in plasma”. For the same compound, the “detection in organs at 24 h” value (liver, kidney, lung, spleen, heart, pancreas (except intestine), 24 h) was “still detectable”. The tissue distribution entry (liver, kidney, lung, spleen, heart, pancreas, intestine) is “widely distributed”.
